{
  "source": "patent US20130303539A1",
  "about": "“COMPOUNDS WITH TRPV4 ACTIVITY, COMPOSITIONS AND ASSOCIATED METHODS THEREOF” (priority 2012, published 2013)",
  "key": {"[1]": {"test_system": "retinal neurons (RGCs) and glia (Müller cells)", "test": "Hypotonic stimuli: cell swelling (change in cell area) and [Ca++]i", "format": "cell-based", "settings": "osmolarity lowered from 300 mOsm to 190 mOsm", "excerpt": "FIG. 18A illustrates the effect of hypotonic stimuli on cell swelling as measured by change in cell area. Hypotonic stimuli were generated by replacing extracellular sodium levels to lower osmolarity from 300 mOsm to 190 mOsm."}, "MB model of glaucoma": {"test_system": "MB model of glaucoma", "test": "IOP time course after a single eye drop in the MB model of glaucoma", "format": "in vivo, mouse", "experimental": "Specifically, microbeads (MBs) were injected into the anterior chamber of a mouse eye as described in Example 2 with PBS-injected eyes used as controls. Compound 1 (10 mg/kg body weight) (or PBS vehicle) was injected intraperitoneally (IP). […] IOP was measured in mice between 10:00 AM and 1:00 PM with the TonoLab rebound tonometer (Colonial Medical Supply, Franconia, NH/Tyolat, Helsinki, Finland). Mice were sedated with IP injection of Avertin with final amount calculated by weight (e.g., 0.5 ml for 21-24 g animals). Animals were placed on a jack stand platform and the tonolab was clamped on a ring stand and centered onto the mid-cornea. During measurements animal were neither restrained nor touched. Each eye was measured twenty consecutive times, the highest and lowest values were discarded and the values were averaged.\nFIG. 9 illustrates the short-term effects of a single dose of Compound 1 (eye drop) in the MB model of glaucoma. IOP was measured as described in Example 3 at the indicated time points after receiving a drop of Compound 1. Compound 1 reduced IOP beginning at 1 hour after dosing and continued through 6 hours after dosing.\nFIG. 10 illustrates a time course of Compounds 1, 2, 5 and Compound 2-HCl as well as a positive control compound, timolol, with regard to inhibition of IOP. The experiment was conducted as described in Example 9. Each of the TRPV4 antagonists reduced IOP with a similar time course. Specifically, Compounds 1, 2, 5 and Compound 2-HCl reduced IOP for at least 6 hours after dosing.\nFIG. 11 illustrates a time course of Compound 2-HCl activity. The experiment was conducted as described in Example 9. […] 2\nFIG. 12 illustrates a comparison of the time course of Compound 2-HCl and Compound 5. The experiment was conducted as described in Example 9."}, "TRPV4 [2]": {"molecular_target": "T1, TRPV4 (Mus musculus, UniProt Q9EPK8)", "T1 sequence (Q9EPK8 whole entry)": "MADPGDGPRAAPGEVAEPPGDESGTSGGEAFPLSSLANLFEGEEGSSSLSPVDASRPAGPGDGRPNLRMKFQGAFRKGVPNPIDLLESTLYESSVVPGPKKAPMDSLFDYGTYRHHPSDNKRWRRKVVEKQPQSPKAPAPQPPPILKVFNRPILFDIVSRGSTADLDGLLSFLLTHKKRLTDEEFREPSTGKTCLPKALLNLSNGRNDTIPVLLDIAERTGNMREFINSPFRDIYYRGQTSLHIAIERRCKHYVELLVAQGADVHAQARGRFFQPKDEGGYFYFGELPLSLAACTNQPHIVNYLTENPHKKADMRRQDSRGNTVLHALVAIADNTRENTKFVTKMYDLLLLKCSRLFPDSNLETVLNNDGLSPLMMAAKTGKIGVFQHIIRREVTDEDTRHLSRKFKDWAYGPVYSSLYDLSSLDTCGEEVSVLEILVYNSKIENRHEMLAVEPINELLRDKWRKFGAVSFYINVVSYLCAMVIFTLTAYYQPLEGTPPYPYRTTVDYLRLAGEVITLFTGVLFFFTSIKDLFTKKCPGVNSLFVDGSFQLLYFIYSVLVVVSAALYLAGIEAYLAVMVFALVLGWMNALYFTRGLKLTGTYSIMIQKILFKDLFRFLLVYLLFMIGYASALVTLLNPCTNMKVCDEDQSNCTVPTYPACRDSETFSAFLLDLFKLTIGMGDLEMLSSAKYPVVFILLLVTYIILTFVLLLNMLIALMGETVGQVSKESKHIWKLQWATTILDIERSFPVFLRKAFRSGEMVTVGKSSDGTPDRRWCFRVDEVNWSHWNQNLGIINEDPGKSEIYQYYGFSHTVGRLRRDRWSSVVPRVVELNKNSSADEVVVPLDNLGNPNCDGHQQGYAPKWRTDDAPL", "test": "TRPV4 agonist GSK-evoked [Ca++]i in retinal Müller glial cells", "format": "cell-based", "design": "endogenous in cells; host or cells: retinal Müller glial cells"}, "TRPV4 [3]": {"molecular_target": "T1, TRPV4", "test": "AGB cation influx into retinal cells (anti-AGB antibody)", "format": "cell-based", "design": "these two cell types express TRPV4 channels in the mouse retina; from tissue; host or cells: mouse retina", "settings": "mouse retina", "experimental": "FIG. 16 illustrates the effect of the TRPV4 agonist GSK on cation influx into mouse retinal cells of the mouse retina. The influx was determined using the anti-AGB antibody, as described by Marc RE (J Comp Neurol 407(1): 47-64, 1999). AGB is a membrane permeant cation that can flow through most known cation channels. Using an anti-AGB antibody, it can be determined where the cation flux occurs and, therefore, which cells are activated."}, "TRPV4 [4]": {"molecular_target": "T2, TRPV4 (Homo sapiens, UniProt Q9HBA0)", "T2 construct": "endogenous in cells; host or cells: primary human trabecular meshwork cells from trabeculectomy tissue", "T2 sequence (Q9HBA0 whole entry)": "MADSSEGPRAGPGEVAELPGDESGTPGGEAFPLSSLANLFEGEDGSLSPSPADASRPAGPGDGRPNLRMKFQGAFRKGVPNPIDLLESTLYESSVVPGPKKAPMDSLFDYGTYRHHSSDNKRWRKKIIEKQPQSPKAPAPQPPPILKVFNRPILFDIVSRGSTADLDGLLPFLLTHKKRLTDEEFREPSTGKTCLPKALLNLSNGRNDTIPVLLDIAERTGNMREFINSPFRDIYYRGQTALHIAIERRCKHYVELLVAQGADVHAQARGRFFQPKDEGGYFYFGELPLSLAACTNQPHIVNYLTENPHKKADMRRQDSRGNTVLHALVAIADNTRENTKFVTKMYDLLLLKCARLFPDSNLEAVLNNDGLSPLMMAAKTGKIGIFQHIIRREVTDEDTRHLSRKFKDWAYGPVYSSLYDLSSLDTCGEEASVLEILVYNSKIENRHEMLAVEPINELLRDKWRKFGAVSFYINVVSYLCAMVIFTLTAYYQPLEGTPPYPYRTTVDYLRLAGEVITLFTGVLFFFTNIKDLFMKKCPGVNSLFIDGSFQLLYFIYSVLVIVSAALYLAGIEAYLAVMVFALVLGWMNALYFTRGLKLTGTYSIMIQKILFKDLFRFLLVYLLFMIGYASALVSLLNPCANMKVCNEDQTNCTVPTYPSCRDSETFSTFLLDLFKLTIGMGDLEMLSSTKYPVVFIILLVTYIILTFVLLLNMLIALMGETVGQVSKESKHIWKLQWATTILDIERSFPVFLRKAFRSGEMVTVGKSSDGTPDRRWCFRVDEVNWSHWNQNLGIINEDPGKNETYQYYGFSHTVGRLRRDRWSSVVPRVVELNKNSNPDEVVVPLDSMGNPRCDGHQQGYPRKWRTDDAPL", "test": "Calcium imaging (fura-2) in human trabecular meshwork cells", "format": "cell-based", "settings": "bath application 100 nM, human TM cells, room temperature", "experimental": "Pieces of tissue were isolated from a trabeculectomy. Trabecular meshwork cells (TM) were kept in cold L15 medium and then loaded with Fura-2 (10 μm) for 1 hour. Fibroblast-shaped cells were imaged from a TM chunk (˜500 μm×500 μm) with a 40× water immersion objective. The sampling rate was at 6 second intervals. Krebs Ringer Bicarbonate Recording buffer (7.4, 284 mOsm) was prepared as reported by Anthony et al., 1998, IOVS; Prostaglandin F2α receptors in the human trabecular meshwork.\nCalcium imaging was performed on TM cells isolated from human patients. In brief, dissociated human TM cells embedded within the tissue were dissociated and plated on concanavalin A-coated (0.2 mg/ml; Sigma) coverslips, loaded with fura-2 AM ([…]; Invitrogen Life Technologies) for 15 min-1 hour and washed for 10 min in dye-free L-15 medium. […] Fluorescence emission was high-pass filtered at 510 nm and captured with cooled digital CCD cameras (HQ2, Photometrics). […] Fluorescence imaging was performed on regions of interest (ROIs) encompassing the TM cell somata, typically at 3×3 binning. Background fluorescence was measured in similarly sized ROIs in neighboring areas devoid of cells. After sequential image acquisition (0.167-0.5 Hz) of cell fluorescence at 340/380 nm, the background was subtracted. […]"}, "retinal ganglion cells [5]": {"test_system": "retinal ganglion cells", "test": "TUNEL assay of apoptotic cell death in retina", "format": "cell-based", "experimental": "Terminal deoxynucleotidyl transferase-mediated dUTP-biotin nick end labeling (TUNEL) is a common method for detecting fragmentation that results from apoptotic signaling cascades. Retinas were embedded, cryosectioned, and processed for the TUNEL assay following the protocol by Gavrieli et al. (1992). After 30 min. rehydration in 70% ethanol, 2×5 min. rinses in PBS and 1% Triton-X in 1% citrate buffer (pH 7.3), the slides were subjected to a final rinse in PBS. Slides were then incubated for 30 min. in the reaction buffer (30 mM Trizma-HCl, 140 mM Na^+ cacodylate, 1.0 mM CaCl2, 0.2% Triton X-100, pH 7.2). Positive controls were treated with DNAse I (Roche Diagnostics; Branford, Conn.; 10 U/ml) in the reaction buffer. Next, slides were treated for 1 hour with 0.03 units/pi terminal transferase and 4 μM biotin-16-dUTP (Roche Diagnostics). The reaction was terminated in 30 mM Na+ citrate, 300 mM NaCl and 0.2% Triton X-100 in PBS (5 min.) and rinsed in PBS (2×5 min), exposed to 1% bovine serum albumin in PBS for 20 min and rinsed. Apoptotic cells were visualized with a confocal microscope (Zeiss LSM510) and categorized by size. […] This was blocked by RuR and by the TRPV4 antagonist Compound 1."}, "retinal ganglion cells [6]": {"test_system": "retinal ganglion cells", "test": "In vivo intraocular injection of TRPV4 agonist GSK, NeuN+ RGC count", "settings": "100-300 nM injected intraocularly, retinas isolated after 48 hours", "experimental": "In this experiment, GSK (100-300 nM) was injected intraocularly with a Hamilton syringe. Retinas were isolated after 48 hours, fixed and labeled with the RGC marker antibody NeuN. NeuN-immunopositive somata in the ganglion cell layer, shown in the panel on the right, were counted. The bar graph represents quantification of NeuN^+ cells in the indicated experimental groups."}, "Müller cells": {"test_system": "Müller cells", "test": "Arachidonic acid-induced [Ca2+]i in Müller cells", "format": "cell-based", "settings": "10 μM, Müller cells", "experimental": "This response is blocked by Compound 1 (1 μM)."}},
  "data": [
    {"smiles": "CC(=O)OCOC(=O)CN(CC(=O)OCOC(C)=O)c1ccccc1OCCOc1ccccc1N(CC(=O)OCOC(C)=O)CC(=O)OCOC(C)=O", "note": "[BAPTA-AM, reference compound]", "values": [
      {"measurement": "cell swelling (change in cell area)", "setting": "[1]", "result": "significantly reduced"}
    ]},
    {"smiles": "Cc1c(C(=O)Nc2cccc(C(=O)OC(C)C)c2)cc(-c2ccccc2)n1CCCN1CCOCC1.Cl", "note": "[Compound 2-HCl, iso-propyl 3-(2-methyl-1-(3-morpholinopropyl)-5-phenyl-1H-pyrrole-3-carboxamido)benzoate hydrochloride]", "values": [
      {"measurement": "time of maximal inhibition of IOP after dosing", "setting": "MB model of glaucoma; single dose eye drop", "result": 6, "unit": "h"},
      {"measurement": "time until IOP reached pre-dose levels", "setting": "MB model of glaucoma; single dose eye drop, post-dosing", "result": 33, "unit": "h"}
    ]},
    {"smiles": "CC(C)C[C@H](NC(=O)c1cc2ccccc2s1)C(=O)N1CCN(C(=O)[C@H](CO)NS(=O)(=O)c2ccc(Cl)cc2Cl)CC1", "note": "[GSK1016790A, reference compound]", "values": [
      {"measurement": "intracellular calcium concentration [Ca++]i, agonist effect", "setting": "TRPV4 [2]", "result": "evokes sustained increases in intracellular calcium concentration"},
      {"measurement": "number of AGB+ cells (cation influx), agonist effect", "setting": "TRPV4 [3]", "result": "increased the number of AGB^+ retinal ganglion cells and Müller glial cells"},
      {"measurement": "340/380 fluorescence ratio (intracellular calcium concentration [Ca++]i)", "setting": "TRPV4 [4]", "result": "increased 340/380 fluorescence ratio"},
      {"measurement": "death of retinal ganglion cells (increased TUNEL staining), agonist effect", "setting": "retinal ganglion cells [5]; 100 nM", "result": "induced death of retinal ganglion cells"},
      {"measurement": "number of retinal ganglion cells (NeuN+ somata), agonist effect", "setting": "retinal ganglion cells [6]", "result": "substantially reduces the number of retinal ganglion cells"}
    ]},
    {"smiles": "N.N.N.N.N.N.N.N.N.N.N.N.N.N.[Cl-].[Cl-].[Cl-].[Cl-].[Cl-].[Cl-].[O-2].[O-2].[Ru+3].[Ru+3].[Ru+4]", "note": "[Ruthenium Red]", "values": [
      {"measurement": "apoptotic cell death (TUNEL) induced by hypotonic swelling", "setting": "retinal ganglion cells [5]; 190 mOsm saline, Compound 1 1 uM, RuR 10 μM", "result": "block apoptotic cell death"},
      {"measurement": "apoptotic cell death (TUNEL) induced by the TRPV4 agonist GSK", "setting": "retinal ganglion cells [5]; GSK 100 nM, Compound 1 1 uM, RuR 10 μM", "result": "block apoptotic cell death"}
    ]},
    {"smiles": "CCCCC/C=C\\C/C=C\\C/C=C\\C/C=C\\CCCC(=O)O", "note": "[arachidonic acid, reference compound]", "values": [
      {"measurement": "[Ca2+]i response", "setting": "Müller cells", "result": "increase in [Ca2+]i"}
    ]},
    {"smiles": "CC(C)(C)NC[C@H](O)COc1nsnc1N1CCOCC1", "note": "[timolol, reference compound]", "values": [
      {"measurement": "inhibition of IOP, curve relative to the exemplary TRPV4 antagonists", "setting": "MB model of glaucoma; positive control, eye drop", "result": "left-shifted dose-response curve"}
    ]}
  ]
}
